# Test system: rabbit skeletal myofibrils (fast skeletal myofibrils)
# Assay: Activation of fast skeletal myofibrils (PUMA assay, PK/LDH-coupled ATPase at pCa25)
# Format: biochemical
# Settings: AC1.4 determined according to the procedure of Example 39; reported as class symbols
# How it was run: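 ATPase activity of Triton-washed rabbit skeletal myofibrils, roughly 90% fast fibres, tracked by NADH loss at 340 nm through a PK/LDH-coupled ADP-regenerating system. Calcium set to 25% of maximal activity (pCa25), in PIPES 12 mM pH 6.8 with 2 mM MgCl2 and 1 mM DTT; AC1.4 reported.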
row,Mean AC1.4,SMILES
1,B (B=1-10 uM),CC(C)(CNc1ccc(CNS(C)(=O)=O)nn1)c1ccc(F)cc1 [[(6-{[2-(4-fluorophenyl)-2-methylpropyl]amino}pyridazin-3-yl)methyl](methylsulfonyl)amine]

# Same assay, conditions: median AC1.4 class, procedure of Example 39
row,Mean AC1.4,SMILES
1,B (B=1-10 uM),O=C(Nc1ccn[nH]1)c1ccc(NCC2(c3ncccc3F)CCC2)nn1 [[6-({[(3-fluoro(2-pyridyl))cyclobutyl]methyl}ami-no)pyridazin-3-yl]-N-pyrazol-5-ylcarboxamide]
2,B (B=1-10 uM),Fc1cccnc1C1(Nc2ccc(-c3ccccc3)nn2)CCC1 [[(3-fluoro(2-pyridyl))cyclobutyl](6-phenylpyridazin-3-yl)amine]
3,D (D=>20 uM),C=Cc1ccc(NC2(c3ncccc3F)CCC2)nn1 [[(3-fluoro(2-pyridyl))cyclobutyl](6-vinylpyridazin-3-yl)amine]
4,B (B=1-10 uM),Fc1ccc(C2(Nc3ccc(-c4ccncc4)nn3)CCC2)cc1 [[(4-fluorophenyl)cyclobutyl](6-(4-pyridyl)pyridazin-3-yl)amine]
5,B (B=1-10 uM),Fc1ccc(C2(Nc3ccc(-c4cn[nH]c4)nn3)CCC2)cc1 [[(4-fluorophenyl)cyclobutyl](6-pyrazol-4-ylpyridazin-3-yl)amine]
6,A (A=<1 uM),COc1ncccc1-c1ccc(NC2(c3ccc(F)cc3)CCC2)nn1 [[(4-fluorophenyl)cyclobutyl][6-(2-methoxy(3-pyridyl))pyridazin-3-yl]amine]
7,B (B=1-10 uM),COc1cc(-c2ccc(NC3(c4ccc(F)cc4)CCC3)nn2)ccn1 [[(4-fluorophenyl)cyclobutyl][6-(2-methoxy(4-pyridyl))pyridazin-3-yl]amine]
8,B (B=1-10 uM),Cc1cc(-c2ccc(NC3(c4ccc(F)cc4)CCC3)nn2)ccn1 [[(4-fluorophenyl)cyclobutyl][6-(2-methyl(4-pyridyl))pyridazin-3-yl]amine]
9,B (B=1-10 uM),COc1cccc(-c2ccc(NC3(c4ccc(F)cc4)CCC3)nn2)n1 [[(4-fluorophenyl)cyclobutyl][6-(6-methoxy(2-pyridyl))pyridazin-3-yl]amine]
10,B (B=1-10 uM),"Fc1ccc(C2(Nc3ccc(-c4cccnc4OCC(F)(F)F)nn3)CCC2)cc1 [[(4-fluorophenyl)cyclobutyl]{6-[2-(2,2,2-trifluoroethoxy)(3-pyridyl)]pyridazin-3-yl}amine]"

# Further lines, the molecule ahead of its results:
row,SMILES,Mean AC1.4
1,Nc1ncc(-c2ccc(NCC3(c4ncccc4F)CCC3)nn2)cc1F [[6-(6-amino-5-fluoro(3-pyridyl))pyridazin-3-yl]{[(3-fluoro(2-pyridyl))cyclobutyl]methyl}amine],A (A=<1 uM)
2,Fc1cc2[nH]ncc2cc1-c1ccc(NC2(c3ncccc3F)CCC2)nn1 [[6-(6-fluoro(1H-indazol-5-yl))pyridazin-3-yl][(3-fluoro(2-pyridyl))cyclobutyl]amine],B (B=1-10 uM)

# Same assay, conditions: median AC1.4 reported as class; procedure of Example 39
row,Mean AC1.4,SMILES
1,D (D=>20 uM),"CN(Cc1nccs1)C(=O)c1ccc(NCC2(c3ncccc3F)CCC2)nn1 [[6-({[(3-fluoro(2-pyridyl))cyclobutyl]methyl}ami-no)pyridazin-3-yl]-N-methyl-N-(1,3-thiazol-2-ylmethyl)carboxamide]"
2,D (D=>20 uM),CNC(=O)c1ccc(NCC2(c3ncccc3F)CCC2)nn1 [[6-({[(3-fluoro(2-pyridyl))cyclobutyl]methyl}ami-no)pyridazin-3-yl]-N-methylcarboxamide]
3,C (C=10-20 uM),"OC[C@H]1CNCCN1Cc1cnc(-c2ccc(NCC3(c4ncccc4F)CCC3)nn2)s1 [[(2R)-1-({2-[6-({[(3-fluoro(2-pyridyl))cyclobutyl]methyl}ami-no)pyridazin-3-yl](1,3-thiazol-5-yl)}methyl)piperazin-2-yl]methan-1-ol]"
4,B (B=1-10 uM),"OC[C@@H]1CNCCN1Cc1cnc(-c2ccc(NCC3(c4ncccc4F)CCC3)nn2)s1 [[(2S)-1-({2-[6-({[(3-fluoro(2-pyridyl))cyclobutyl]methyl}ami-no)pyridazin-3-yl](1,3-thiazol-5-yl)}methyl)piperazin-2-yl]methan-1-ol]"
5,A (A=<1 uM),"CC(C)[C@H](N)C(=O)N[C@H](C(=O)OCC(=O)NCc1cnc(-c2ccc(NCC3(c4ncccc4F)CCC3)nn2)s1)C(C)C [[N-({2-[6-({[(3-fluoro-2-pyridyl)cyclobutyl]methyl}ami-no)pyridazin-3-yl]-1,3-thiazol-5-yl}methyl)carbamoyl]methyl (2S)-2-((2S)-2-amino-3-methylbutanoylamino)-3-methylbutanoate]"
6,A (A=<1 uM),"C[C@H](N)C(=O)N[C@@H](C)C(=O)OCC(=O)NCc1cnc(-c2ccc(NCC3(c4ncccc4F)CCC3)nn2)s1 [[N-({2-[6-({[(3-fluoro-2-pyridyl)cyclobutyl]methyl}ami-no)pyridazin-3-yl]-1,3-thiazol-5-yl}methyl)carbamoyl]methyl (2S)-2-((2S)-2-aminopropanoylamino)propanoate]"
7,A (A=<1 uM),"CC(C)[C@H](N)C(=O)OCC(=O)NCc1cnc(-c2ccc(NCC3(c4ncccc4F)CCC3)nn2)s1 [[N-({2-[6-({[(3-fluoro-2-pyridyl)cyclobutyl]methyl}ami-no)pyridazin-3-yl]-1,3-thiazol-5-yl}methyl)carbamoyl]methyl (2S)-2-amino-3-methylbutanoate]"
8,A (A=<1 uM),"C[C@H](N)C(=O)OCC(=O)NCc1cnc(-c2ccc(NCC3(c4ncccc4F)CCC3)nn2)s1 [[N-({2-[6-({[(3-fluoro-2-pyridyl)cyclobutyl]methyl}ami-no)pyridazin-3-yl]-1,3-thiazol-5-yl}methyl)carbamoyl]methyl (2S)-2-aminopropanoate]"

# The remaining lines, values behind:
row,SMILES,Mean AC1.4
1,Cc1cc(-c2ccc(NC[C@]3(c4ncccc4F)C[C@H](F)C3)nn2)cnc1N [[6-(6-amino-5-methyl(3-pyridyl))pyridazin-3-yl]{[3-fluoro-1-(3-fluoro(2-pyridyl))cyclobutyl]methyl}amine],B (B=1-10 uM)
2,"CN(C)C(=O)c1ccc(NCC2(c3ncccc3F)CCC2)nn1 [[6-({[(3-fluoro(2-pyridyl))cyclobutyl]methyl}ami-no)pyridazin-3-yl]-N,N-dimethylcarboxamide]",D (D=>20 uM)
3,"O=C(Nc1nncs1)c1ccc(NCC2(c3ncccc3F)CCC2)nn1 [[6-({[(3-fluoro(2-pyridyl))cyclobutyl]methyl}ami-no)pyridazin-3-yl]-N-(1,3,4-thiadiazol-2-yl)carboxamide]",B (B=1-10 uM)
4,"O=C(Nc1ncco1)c1ccc(NCC2(c3ncccc3F)CCC2)nn1 [[6-({[(3-fluoro(2-pyridyl))cyclobutyl]methyl}ami-no)pyridazin-3-yl]-N-(1,3-oxazol-2-yl)carboxamide]",D (D=>20 uM)
5,"O=C(Nc1nccs1)c1ccc(NCC2(c3ncccc3F)CCC2)nn1 [[6-({[(3-fluoro(2-pyridyl))cyclobutyl]methyl}ami-no)pyridazin-3-yl]-N-(1,3-thiazol-2-yl)carboxamide]",A (A=<1 uM)
6,"O=C(NCc1nccs1)c1ccc(NCC2(c3ncccc3F)CCC2)nn1 [[6-({[(3-fluoro(2-pyridyl))cyclobutyl]methyl}ami-no)pyridazin-3-yl]-N-(1,3-thiazol-2-ylmethyl)carboxamide]",D (D=>20 uM)
7,Cn1ccc(NC(=O)c2ccc(NCC3(c4ncccc4F)CCC3)nn2)n1 [[6-({[(3-fluoro(2-pyridyl))cyclobutyl]methyl}ami-no)pyridazin-3-yl]-N-(1-methylpyrazol-3-yl)carboxamide],C (C=10-20 uM)
8,O=C(NC1CCCNC1=O)c1ccc(NCC2(c3ncccc3F)CCC2)nn1 (centres unmarked) [[6-({[(3-fluoro(2-pyridyl))cyclobutyl]methyl}ami-no)pyridazin-3-yl]-N-(2-oxo(3-piperidyl))carboxamide],D (D=>20 uM)
9,O=C(NCc1ccccn1)c1ccc(NCC2(c3ncccc3F)CCC2)nn1 [[6-({[(3-fluoro(2-pyridyl))cyclobutyl]methyl}ami-no)pyridazin-3-yl]-N-(2-pyridylmethyl)carboxamide],D (D=>20 uM)
10,O=C(NCc1cccnc1)c1ccc(NCC2(c3ncccc3F)CCC2)nn1 [[6-({[(3-fluoro(2-pyridyl))cyclobutyl]methyl}ami-no)pyridazin-3-yl]-N-(3-pyridylmethyl)carboxamide],C (C=10-20 uM)
11,O=C(NCc1ccncc1)c1ccc(NCC2(c3ncccc3F)CCC2)nn1 [[6-({[(3-fluoro(2-pyridyl))cyclobutyl]methyl}ami-no)pyridazin-3-yl]-N-(4-pyridylmethyl)carboxamide],D (D=>20 uM)
12,O=C(NCc1ccn[nH]1)c1ccc(NCC2(c3ncccc3F)CCC2)nn1 [[6-({[(3-fluoro(2-pyridyl))cyclobutyl]methyl}ami-no)pyridazin-3-yl]-N-(pyrazol-5-ylmethyl)carboxamide],D (D=>20 uM)
13,Cn1ccc(CNC(=O)c2ccc(NCC3(c4ncccc4F)CCC3)nn2)n1 [[6-({[(3-fluoro(2-pyridyl))cyclobutyl]methyl}ami-no)pyridazin-3-yl]-N-[(1-methylpyrazol-3-yl)methyl]carboxamide],D (D=>20 uM)
14,Cn1nccc1CNC(=O)c1ccc(NCC2(c3ncccc3F)CCC2)nn1 [[6-({[(3-fluoro(2-pyridyl))cyclobutyl]methyl}ami-no)pyridazin-3-yl]-N-[(1-methylpyrazol-5-yl)methyl]carboxamide],D (D=>20 uM)
15,O=C1CCC(CNC(=O)c2ccc(NCC3(c4ncccc4F)CCC3)nn2)N1 (centres unmarked) [[6-({[(3-fluoro(2-pyridyl))cyclobutyl]methyl}ami-no)pyridazin-3-yl]-N-[(5-oxopyrrolidin-2-yl)methyl]carboxamide],D (D=>20 uM)
16,O=C(Nc1ncc[nH]1)c1ccc(NCC2(c3ncccc3F)CCC2)nn1 [[6-({[(3-fluoro(2-pyridyl))cyclobutyl]methyl}ami-no)pyridazin-3-yl]-N-imidazol-2-ylcarboxamide],C (C=10-20 uM)
17,O=C(Nc1ccon1)c1ccc(NCC2(c3ncccc3F)CCC2)nn1 [[6-({[(3-fluoro(2-pyridyl))cyclobutyl]methyl}ami-no)pyridazin-3-yl]-N-isoxazol-3-ylcarboxamide],B (B=1-10 uM)
